Data published in article PMC7248712 (2020).

Tests used:
poly A (RNA, polymer) A [1] = experiment: fluorimetric titration, Scatchard (McGhee-von Hippel) fit; conditions: Na+ (sodium cacodylate, I = 0.05 M), pH 7.0, 1 µM compound, n fixed 0.5 per polynucleotide base
[2] = system: poly (dAdT)2 (DNA, polymer) AT; experiment: as above; conditions: Na+ (sodium cacodylate, I = 0.05 M), pH 7.0, room temperature, 1 µM compound, n fixed 0.2 per polynucleotide base
poly U (RNA, polymer) U [3] = experiment: as above; conditions: Na+ (sodium cacodylate, I = 0.05 M), pH 7.0, 1 µM compound, n fixed 0.5 per polynucleotide base
poly C (RNA, polymer) C = experiment: fluorimetric titration; conditions: Na+ (sodium cacodylate, I = 0.05 M), pH 7.0, 1 µM compound
[4] = system: poly A-poly U (RNA, polymer) A/U; experiment: fluorimetric titration, Scatchard (McGhee-von Hippel) fit; conditions: Na+ (sodium cacodylate, I = 0.05 M), pH 7.0, room temperature, 1 µM compound, n fixed 0.2 per polynucleotide base
poly A (RNA, polymer) A [5] = experiment: fluorimetric titration; conditions: Na+ (sodium cacodylate, I = 0.05 M); pH 7.0, 1 µM compound; up to 100-fold excess of polynucleotide bases
poly G (RNA, polymer) G = experiment: fluorimetric titration; conditions: Na+ (sodium cacodylate, I = 0.05 M); pH 7.0, 1 µM compound; up to 100-fold excess of polynucleotide bases
poly U (RNA, polymer) U [6] = experiment: fluorimetric titration; conditions: Na+ (sodium cacodylate, I = 0.05 M); pH 7.0, 1 µM compound; up to 100-fold excess of polynucleotide bases
[7] = system: poly A-poly U (RNA, polymer) A/U; experiment: fluorimetric titration; conditions: Na+ (sodium cacodylate, I = 0.05 M); pH 7.0, 1 µM compound; up to 100-fold excess of polynucleotide bases
[8] = system: poly (dAdT)2 (DNA, polymer) AT; experiment: fluorimetric titration; conditions: Na+ (sodium cacodylate, I = 0.05 M); pH 7.0, 1 µM compound; up to 100-fold excess of polynucleotide bases

| log Ks (poly A (RNA, polymer) A [1]) | log Ks [2] | log Ks (poly U (RNA, polymer) U [3]) | binding (poly C (RNA, polymer) C; emission change too small to fit, authors state binding not supported) | log Ks [4] | binding (poly A (RNA, polymer) A [5]) | binding (poly G (RNA, polymer) G) | binding (poly C (RNA, polymer) C; up to 100-fold excess of polynucleotide bases) | binding (poly U (RNA, polymer) U [6]) | binding [7] | binding [8] | SMILES |
| --- | --- | --- | --- | --- | --- | --- | --- | --- | --- | --- | --- |
| 5.2 | 5.7 | 4.7 | no |  |  |  |  |  |  |  | COC(=O)[C@H](CCCCNC(=O)CCCc1ccc2ccc3cccc4ccc1c2c34)n1cc(Cn2cc3c4c(ncnc42)Nc2ncccc2-3)nn1 |
|  | 5.0 |  |  | 5.5 |  |  |  |  |  |  | COC(=O)[C@H](CCCCNC(=O)c1ccc2ccc3cccc4ccc1c2c34)n1cc(Cn2cc3c4c(ncnc42)Nc2ncccc2-3)nn1 |
|  |  |  |  |  | no | no | no | no | no | no | NCCCC[C@@H](C(=O)O)n1cc(Cn2cc3c4c(ncnc42)Nc2ncccc2-3)nn1 |
